These results are taken from patent US20250099535A1, “GEPOTIDACIN AND VANCOMYCIN FOR USE IN THE TREATMENT OF AN INFECTION CAUSED BY STAPHYLOCOCCUS SAPROPHYTICUS” (GlaxoSmithKline Intellectual Property Development Limited, priority 2022, published 2025).

Holding throughout (type): cell-based
In one assay the test system is Enterococcus faecalis. Put plainly: Baseline broth microdilution MIC (CLSI M07). The note with it: for MIC: Enterococcus faecalis. As to the method:
(§1) MIC values were determined in triplicate by Clinical and Laboratory Standards Institute (CLSI) […] (2018) reference broth microdilution (BMD) using cation adjusted Mueller Hinton broth (CAMHB) to determine a consensus median baseline MIC value for each isolate and compound. As required by CLSI M100 (2021), quality control (QC) strains Escherichia coli ATCC 25922, Pseudomonas aeruginosa ATCC 27853, Staphylococcus aureus 29213, and Enterococcus faecalis ATCC 29212 were tested concomitantly with the clinical isolates. (QC data not shown).

For assay [1], the system named is Staphylococcus saprophyticus. In words: Baseline broth microdilution MIC (CLSI M07). As to the method: as §1
For orientation: In broth dilution the organism is exposed to a series of concentrations in liquid medium.

Assay [2] has as its system Staphylococcus saprophyticus. Put plainly: Time-kill kinetic assay. Conditions: 1× MIC, 5 S. saprophyticus isolates. As to the method: CAMHB was used for the follow-up time-kill kinetic studies. Each organism was tested in media containing either compound alone, or both, at ½×, ¼×, and 1× their respective MICs. Time-kill concentration tubes were sampled at time 0 hours (T0), T2, T4, T8, and T24. Samples were serially diluted ten-fold up to 8 times in tubes with […] of a 0.85% saline solution. A volume of 0.1 mL was then plated onto tryptic-soy agar with 5% sheep blood from the original sample and subsequent dilutions. Plates were incubated for 24 hours at 35° C. before quantifying the viable cell count for each tube at the specified times (T0-T24).
As described in the CLSI M26-A manual, bactericidal activity was defined as a 3-log10 decrease in CFU/mL below the starting inoculum that was maintained for 24 hours. […] The number of surviving organisms in the presence of the combination was required to be ≥2 log10 CFU/mL below the starting inocula and at least one of the drugs should not affect the growth curve of the tested organism.

The structures appear in SMILES notation. Values after ≈ are worked out from the molar mass of the structure shown. Like-named read-outs stand apart in the source and are kept apart here.

A word on the MIC: it is the lowest concentration that inhibits growth of the organism.

Regarding `O=c1ccc2ncc(=O)n3c2n1C[C@H]3CN1CCC(NCc2cc3c(cn2)OCCC3)CC1` [gepotidacin, (2R)-2-({4-[(3,4-dihydro-2H-pyrano[2,3-c]pyridin-6-ylmethyl)amino]-1-piperidinyl}methyl)-1,2-dihydro-3H,8H-2a,5,8a-triazaacenaphthylene-3,8-dione], the MIC was found to be 1 µg/mL (≈ 2.23 µM) in the assay with Enterococcus faecalis (isolate E. faecalis 1097863, CAMHB, read-out: GEP MIC); 0.5 µg/mL (≈ 1.11 µM) in the assay on Enterococcus faecalis (isolate E. faecalis 1103597, CAMHB, read-out: GEP MIC); 0.5 µg/mL (≈ 1.11 µM) in the assay with Enterococcus faecalis (isolate E. faecalis 1103850, CAMHB, read-out: GEP MIC); 1 µg/mL (≈ 2.23 µM) in the assay on Enterococcus faecalis (isolate E. faecalis 1111210, CAMHB, read-out: GEP MIC); 0.5 µg/mL (≈ 1.11 µM) in the assay with Enterococcus faecalis (isolate E. faecalis 1124756, CAMHB, read-out: GEP MIC); 0.25 µg/mL (≈ 0.557 µM) in assay [1] (isolate S. saprophyticus 1106006, CAMHB, read-out: GEP MIC). In addition, the MIC in assay [1] (isolate S. saprophyticus 1113726, CAMHB, read-out: GEP MIC) was 0.12 µg/mL (≈ 0.268 µM); in assay [1] (isolate S. saprophyticus 1115244, CAMHB, read-out: GEP MIC) it was 0.12 µg/mL (≈ 0.268 µM); in assay [1] (isolate S. saprophyticus 1125669, CAMHB, read-out: GEP MIC), 0.25 µg/mL (≈ 0.557 µM); in assay [1] (isolate S. saprophyticus 1129086, CAMHB, read-out: GEP MIC) it was 0.25 µg/mL (≈ 0.557 µM). Besides, in assay [2], the “Bactericidal activity (3-log10 decrease in CFU/mL below the starting inoculum maintained for 24 hours)” value was “not achieved”.
For `CN[C@H](CC(C)C)C(=O)N[C@H]1C(=O)N[C@@H](CC(N)=O)C(=O)N[C@H]2C(=O)N[C@H]3C(=O)N[C@H](C(=O)N[C@H](C(=O)O)c4cc(O)cc(O)c4-c4cc3ccc4O)[C@H](O)c3ccc(c(Cl)c3)Oc3cc2cc(c3O[C@@H]2O[C@H](CO)[C@@H](O)[C@H](O)[C@H]2O[C@H]2C[C@](C)(N)[C@H](O)[C@H](C)O2)Oc2ccc(cc2Cl)[C@H]1O` [vancomycin], the MIC in the assay with Enterococcus faecalis (read-out: VANC MIC) stood at 1 µg/mL (≈ 0.69 µM); in assay [1] (read-out: VANC MIC, isolate S. saprophyticus 1106006, CAMHB) it was 0.5 µg/mL (≈ 0.345 µM); in assay [1] (read-out: VANC MIC, isolate S. saprophyticus 1113726, CAMHB), 1 µg/mL (≈ 0.69 µM); in assay [1] (read-out: VANC MIC, isolate S. saprophyticus 1115244, CAMHB) it was 1 µg/mL (≈ 0.69 µM); in assay [1] (read-out: VANC MIC, isolate S. saprophyticus 1125669, CAMHB), 1 µg/mL (≈ 0.69 µM); in assay [1] (read-out: VANC MIC, isolate S. saprophyticus 1129086, CAMHB), 0.5 µg/mL (≈ 0.345 µM). Further, the “VANC MIC” value worked out at 1 µg/mL in the assay on Enterococcus faecalis (isolate E. faecalis 1103597, CAMHB); 1 µg/mL with Enterococcus faecalis (isolate E. faecalis 1103850, CAMHB); 1 µg/mL with Enterococcus faecalis (isolate E. faecalis 1111210, CAMHB); 1 µg/mL with Enterococcus faecalis (isolate E. faecalis 1124756, CAMHB). The “Bactericidal activity (3-log10 decrease in CFU/mL below the starting inoculum maintained for 24 hours)” value in assay [2] is listed as “not achieved”.
